The results in this text go back to patent US9586896B2, “Nitroxyl donors with improved therapeutic index” (Cardioxyl Pharmaceuticals, Inc., priority 2013, dated 2017).

One series relates to dogs. Description: 14-day continuous infusion tolerance study of CXL-1020 in dogs. It is filed as in vivo. Here is the method:
During in vivo trials of the nitroxyl donor, CXL-1020 (N-hydroxy-2-methanesulfonylbenzene-1-sulfonamide), a 14-day study was conducted to evaluate tolerance in dogs treated with continuous infusions of CXL-1020 at dose rates of up to 90 μg/kg/min. […] To further investigate this undesirable side-effect, a follow-up 14-day study in dogs was initiated.

The subject of another series is healthy volunteers. The series is described as follows: 24-hour continuous infusion dose escalation study of CXL-1020 in healthy volunteers. The note with it: forearm vein infusion. It is filed as in vivo, humans. How it is done: To determine whether a local phlebitis would occur in humans upon longer duration dosing, a longer duration study was conducted in healthy volunteers. The longer duration study included a dose escalation study in which cohorts of 10 volunteers were to be sequentially administered a 24-hour continuous infusion of CXL-1020 at the dose rates of 10, 20, and 30 μg/kg/min with a safety assessment between each cohort. Each cohort consisted of 2 placebo and 8 active treatments with a sentinel pair of 1 active and 1 placebo followed by the main group of 1 placebo and 7 active treatments. The infusion was via a percutaneous catheter inserted into a forearm vein. The catheter was switched to the contralateral arm after 12 hours of infusion.

Series [1] has as its system heart failure canines (microembolization model). Description: Hemodynamic efficacy in canine microembolization heart failure model. The class given is in vivo, mongrel dogs. The note with it: 3 or 10 μg/kg/min infusion, FIG. 3. How it is done: Heart failure was produced using healthy, conditioned, purpose-bred mongrel dogs (20-26 kg) using a sequential microembolization model. Coronary microembolization was performed until LV-ejection fraction (determined angiographically under anesthesia) was approximately 30% or lower. Two weeks were then provided after the last microembolization to ensure stabilization of each animal prior to initiating experiments.
An initial dose-finding study (2-100 μg/kg/min for 40 min) was performed in 3 dogs to identify therapeutically relevant doses of a compound of formula (1). […] Only one dose was studied on a given day, the other at least one-week later, and the order randomized. […]
LV end-systolic volume (ESV) and end-diastolic volumes (EDV) were calculated from ventriculograms using the area-length method. […] LV fractional area of shortening (FAS) was measured from LV short axis view at the level of papillary muscles obtained from 2-dimensional echocardiograms. Measured indexes of LV diastolic function included deceleration time of mitral inflow velocity (DT), ratio of the integral of early mitral inflow velocity (Ei) to velocity during atrial contraction (Ai) (Ei/Ai) and LV end-diastolic circumferential wall stress (EDWS).
Measurements of myocardial oxygen consumption were performed at baseline and at 4 hours after 10 μg/kg/min infusion. […] Oxygen content was determined with a hemoximeter. […]

Compound `CS(=O)(=O)c1ccccc1S(=O)(=O)NO` [CXL-1020, N-hydroxy-2-methanesulfonylbenzene-1-sulfonamide] had a dose rate tolerated in the series on dogs of 60 µg/kg/min. The “tolerability at 10 μg/kg/min for 24-hours” value in the series with healthy volunteers (10 μg/kg/min) is recorded as “well tolerated”. Further, the “findings at 20 μg/kg/min for 24-hours” value in the series with healthy volunteers (20 μg/kg/min) is given as “mild findings (either clinical signs and/or changes in clinical pathology) in all 8 subjects consistent with infusion site phlebitis”.

For `Cc1ccc(S(=O)(=O)NO)o1` [Compound (1), N-Hydroxy-5-methylfuran-2-sulfonamide], in series [1], the “hemodynamic activity relative to CXL-1020” value is “comparable hemodynamic activity to CXL-1020”.
